For orientation: pIC50 means the negative decadic logarithm of the IC50, by convention in mol/L.

The values that follow come from ChEMBL document CHEMBL3045623, “Pyrazole derivatives as photosynthetic electron transport inhibitors: new leads and structure-activity relationship” (J Agric Food Chem, 2005).

In one test the target is Photosystem II protein D1 (Spinacia oleracea, UniProt P69560). The test can be described thus: Inhibition of photosynthetic electron transport at the PSII level in intact chloroplasts from Spinacia oleracea (spinach) leaves assessed as inhibition of in vitro activity by Hill reaction assay.
Conditions: not given
Turning to `Cc1[nH]nc(C(=O)NC2CC2)c1C(=O)O`, the pIC50 is listed as below 1.
As for `Cc1c(C(=O)O)c(C(=O)NC(C)(C)C)nn1C(C)(C)C`, the pIC50 is below 1.

Staying with this test, now noted: read-out: IC50.
Regarding `Cc1[nH]nc(C(=O)NC2CC2)c1C(=O)O`, the IC50 is above 100000 µM.
Take `O=c1sc(NC2CCCCC2)nc2[nH]ncc12`: the IC50 is 66.5 µM.
For `Cc1c(C(=O)O)c(C(=O)NC(C)(C)C)nn1C`, the IC50 came out at 670 µM.
On to `Cc1c(C(=O)O)c(C(=O)NC2CC2)nn1-c1c(Cl)cc(C(F)(F)F)cc1Cl`, for which the IC50 was 12200 µM.
For `CCCCNc1nc2[nH]ncc2c(=O)s1`, the IC50 was found to be 211 µM.
On to `FC(F)(F)c1cccc(Nc2nc3[nH]ncc3c(=S)s2)c1`, for which the IC50 turned out to be 2.78 µM.
Take `O=c1sc(NCc2ccccc2)nc2[nH]ncc12`: the IC50 came out at 10.8 µM.
For the molecule `O=c1sc(Nc2cccc(C(F)(F)F)c2)nc2[nH]ncc12`, the IC50 is 33.2 µM.
`S=c1sc(Nc2ccc(Cl)cc2)nc2[nH]ncc12`: the IC50 was found to be 21.3 µM.
The same measure, in the same setting: the result for `S=c1sc(Nc2cccc(Cl)c2)nc2[nH]ncc12` reads 15.3 µM.
Regarding `Cc1onc(C(=O)NC(C)(C)C)c1C(=O)O`, the IC50 came to 290 µM.
For `CCNc1nc2[nH]ncc2c(=S)s1`, the IC50 came to 10.7 µM.
Same read-out and setting: in the case of `Cc1c(C(=O)O)c(C(=O)NC(C)(C)C)nn1-c1ccccc1` it was 7600 µM.
For `O=c1sc(Nc2ccc([N+](=O)[O-])cc2)nc2[nH]ncc12`, the IC50 is 1060 µM.
Same read-out and setting: the result for `O=c1sc(Nc2cccc(Cl)c2)nc2[nH]ncc12` reads 48 µM.
Still for that read-out and setting: in the case of `S=c1sc(Nc2ccccc2Cl)nc2[nH]ncc12` it was 43.1 µM; in that of `Cc1c(C(=O)O)c(C(=O)NC2CC2)nn1-c1ccccc1`, 22500 µM.
Take `O=c1sc(Nc2ccccc2Cl)nc2[nH]ncc12`: the IC50 stood at 47.8 µM.
`Cc1c(C(=O)O)c(C(=O)NC2CC2)nn1-c1ccc(Cl)cc1`: the IC50 amounted to 370 µM.
Same read-out and setting: in the case of `Cc1c(C(=O)O)c(C(=O)NC(C)(C)C)nn1-c1ccc(Cl)cc1` it was 950 µM.
Same read-out and setting: in the case of `O=c1sc(Nc2ccc(Br)cc2)nc2[nH]ncc12` it was 28.5 µM; in that of `Cc1onc(C(=O)NC2CC2)c1C(=O)O`, 100 µM; in that of `Cc1c(C(=O)O)c(C(=O)NC2CC2)nn1C`, 1190 µM.
Still for that read-out and setting: the result for `S=c1sc(Nc2ccc(Br)cc2)nc2[nH]ncc12` reads 6.06 µM.
For `Cc1c(C(=O)O)c(C(=O)NC(C)(C)C)nn1-c1c(Cl)cc(C(F)(F)F)cc1Cl`, the IC50 was 1040 µM.
For the molecule `S=c1sc(NCc2ccccc2)nc2[nH]ncc12`, the IC50 was found to be 2.84 µM.
Take `S=c1sc(NC2CCCCC2)nc2[nH]ncc12`: the IC50 was found to be 0.64 µM.
Same read-out and setting: the result for `CCCCNc1nc2[nH]ncc2c(=S)s1` reads 2.67 µM; that for `CCNc1nc2[nH]ncc2c(=O)s1`, 335 µM; that for `Cc1c(C(=O)O)c(C(=O)NC2CC2)nn1C(C)(C)C`, 68000 µM.
The same measure, in the same setting: the result for `O=c1sc(Nc2ccc(Cl)cc2)nc2[nH]ncc12` reads 38.5 µM; that for `Cc1c(C(=O)O)c(C(=O)NC(C)(C)C)nn1C(C)(C)C`, above 100000 µM.

Staying with this test, now noted: read-out: pIC50 (converted).
As to `CCC(C)n1c(=O)[nH]c2cc(C)nn2c1=O` (configuration not stated), the IC50 was 2.6 µM.
The same measure, in the same setting: in the case of `O=c1[nH]c2c(c(=O)n1C1CCCCC1)CCC2` [LENACIL] it was 0.08 µM.
`Cc1cc2[nH]c(=O)s/c(=N/C3CCCCC3)n2n1`: the IC50 is 0.21 µM.
As to `Cc1cc2[nH]c(=O)s/c(=N/Cc3ccccc3)n2n1`, the IC50 is 18 µM.
Consider `CN(C)c1nc(=O)n(C2CCCCC2)c(=O)n1C` [HEXAZINONE], for which the IC50 was 0.11 µM.
In the case of `Cc1cc2[nH]c(=O)n(Cc3ccccc3)c(=O)n2n1`, the IC50 is 42 µM.
The same measure, in the same setting: in the case of `CC/N=c1/sc(=O)[nH]c2cc(C)nn12` it was 2.9 µM; in that of `CN(C)C(=O)Nc1ccc(Cl)c(Cl)c1` [DCMU], 0.27 µM; in that of `CCn1c(=O)[nH]c2cc(C)nn2c1=O`, 32 µM.
Take `CCCCn1c(=O)[nH]c2cc(C)nn2c1=O`: the IC50 was 6.61 µM.
`Cc1cc2[nH]c(=O)n(-c3ccccc3)c(=O)n2n1`: the IC50 is 169 µM.
With `CCCC/N=c1/sc(=O)[nH]c2cc(C)nn12`, the IC50 was 0.57 µM.
Take `Cc1cc2[nH]c(=O)n(C3CCCCC3)c(=O)n2n1`: the IC50 is 0.32 µM.
